Legend:
Assay type in all cases: cell-based
Mediator release, IL-4 = assay: Pharmacological profile: mediator release
Source text: (§1) Table 1 Pharmacological profile of SM-345431 (part 1) | column: IC50 (μm)

[1] = system: Mediator release, IFN-gamma; assay: Pharmacological profile: mediator release
Source text: as §1

[2] = system: Mediator release, IL-1beta; assay: Pharmacological profile: mediator release
Source text: as §1

[3] = system: Mediator release, TNF-alfa, PBML; assay: Pharmacological profile: mediator release
Source text: as §1

Mediator release, IL-6 = assay: Pharmacological profile: mediator release
Source text: as §1

Mediator release, IL-10 = assay: Pharmacological profile: mediator release
Source text: as §1

semaphorin3A = molecular target: T1, semaphorin3A (Homo sapiens, UniProt Q14563); assay: Growth cone collapse assay, E14 rat DRG; conditions: read-out: semaphorin3A inhibiting activity, IC50
T1 sequence (Q14563 21-771): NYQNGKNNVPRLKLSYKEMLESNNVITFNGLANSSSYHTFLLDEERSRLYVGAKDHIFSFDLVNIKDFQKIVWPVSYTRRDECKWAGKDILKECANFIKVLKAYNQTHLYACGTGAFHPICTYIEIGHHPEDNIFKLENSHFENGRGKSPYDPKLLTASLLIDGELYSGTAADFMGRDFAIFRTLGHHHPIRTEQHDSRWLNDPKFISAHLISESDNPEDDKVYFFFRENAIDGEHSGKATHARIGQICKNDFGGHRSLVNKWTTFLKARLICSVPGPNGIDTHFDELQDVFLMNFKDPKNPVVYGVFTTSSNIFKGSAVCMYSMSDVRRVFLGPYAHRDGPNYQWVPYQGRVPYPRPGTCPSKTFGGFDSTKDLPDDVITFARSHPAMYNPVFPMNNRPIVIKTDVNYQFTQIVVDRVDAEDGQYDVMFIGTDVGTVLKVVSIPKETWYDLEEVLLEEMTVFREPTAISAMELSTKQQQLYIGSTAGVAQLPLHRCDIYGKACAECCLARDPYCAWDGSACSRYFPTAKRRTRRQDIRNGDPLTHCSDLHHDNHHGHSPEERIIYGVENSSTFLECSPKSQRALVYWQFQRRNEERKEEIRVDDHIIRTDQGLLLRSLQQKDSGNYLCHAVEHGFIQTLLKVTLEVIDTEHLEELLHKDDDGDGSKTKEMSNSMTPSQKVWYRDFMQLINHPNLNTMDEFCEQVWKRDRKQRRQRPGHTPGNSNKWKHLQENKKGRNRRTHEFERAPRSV
Protocol: The growth cone collapse assay and collagen co-culture experiments were performed as previously described. To examine the effects of SM-345431-silicone, small pieces (2 × 1 × 0.3 mm; approximately 1 mg containing 1 μg of SM-345431) of the SM-345431-silicone or control-silicone were placed in a collagen gel adjacent to E8 chick DRGs and COS7 cell aggregates, as shown in Figure 1C.

## CC(=O)c1cc2c(=O)c3c(C(=O)O)c(O)c(O)cc3oc2c(C(C)=O)c1-c1coc2cc(O)c(O)c(C(=O)O)c2c1=O [SM-345431, Vinaxanthone]
Mediator release, IL-4
  IC50: > 10 µM
[1]
  IC50: > 10 µM
[2]
  IC50: > 10 µM
[3]
  IC50: > 10 µM
Mediator release, IL-6
  IC50: > 10 µM
Mediator release, IL-10
  IC50: > 10 µM
semaphorin3A
  IC50: 0.1 to 0.2 µM
